ChEMBL document CHEMBL1201861, “Genomics of Drug Sensitity in Cancer screening data, Wellcome Trust Sanger Institute”

Legend:
Experiment in all cases: cells
MKN-1 = type: functional, cell-based, Homo sapiens
Description: SANGER: Inhibition of human MKN1 cell growth in a cell viability assay.

NCI-H2452 = type: functional, cell-based, Homo sapiens
Description: SANGER: Inhibition of human NCI-H2452 cell growth in a cell viability assay.

IGROV-1 = type: functional, cell-based, Homo sapiens
Description: SANGER: Inhibition of human IGROV-1 cell growth in a cell viability assay.

CAL-12T = type: functional, cell-based, Homo sapiens
Description: SANGER: Inhibition of human CAL-12T cell growth in a cell viability assay.

NB7 = type: functional, cell-based, Homo sapiens
Description: SANGER: Inhibition of human NB7 cell growth in a cell viability assay.

G-361 = type: functional, cell-based, Homo sapiens
WM-115 = type: functional, cell-based, Homo sapiens
Description: SANGER: Inhibition of human WM-115 cell growth in a cell viability assay.

HMV-2 cell line = type: functional, cell-based, Homo sapiens
Description: SANGER: Inhibition of human HMV-II cell growth in a cell viability assay.

EFO-27 = type: functional, cell-based, Homo sapiens
Description: SANGER: Inhibition of human EFO-27 cell growth in a cell viability assay.

SF-295 = type: functional, cell-based, Homo sapiens
Description: SANGER: Inhibition of human SF295 cell growth in a cell viability assay.

LU-99A = type: functional, cell-based, Homo sapiens
Description: SANGER: Inhibition of human LU-99A cell growth in a cell viability assay.

C32 = type: functional, cell-based, Homo sapiens
Description: SANGER: Inhibition of human C32 cell growth in a cell viability assay.

CAL-33 = type: functional, cell-based, Homo sapiens
Description: SANGER: Inhibition of human CAL-33 cell growth in a cell viability assay.

HT55 = type: functional, cell-based, Homo sapiens
Description: SANGER: Inhibition of human HT55 cell growth in a cell viability assay.

TCC-SUP = type: functional, cell-based, Homo sapiens
Description: SANGER: Inhibition of human TCCSUP cell growth in a cell viability assay.

U-118-MG = type: functional, cell-based, Homo sapiens
Description: SANGER: Inhibition of human U-118-MG cell growth in a cell viability assay.

NCI-H358 = type: functional, cell-based, Homo sapiens
Description: SANGER: Inhibition of human NCI-H358 cell growth in a cell viability assay.

RMG-I = type: functional, cell-based, Homo sapiens
Description: SANGER: Inhibition of human RMG-I cell growth in a cell viability assay.

SW626 = type: functional, cell-based, Homo sapiens
Description: SANGER: Inhibition of human SW626 cell growth in a cell viability assay.

Capan-2 = type: functional, cell-based, Homo sapiens
Description: SANGER: Inhibition of human Capan-2 cell growth in a cell viability assay.

NCI-H810 = type: functional, cell-based, Homo sapiens
Description: SANGER: Inhibition of human NCI-H810 cell growth in a cell viability assay.

SW948 = type: functional, cell-based, Homo sapiens
Description: SANGER: Inhibition of human SW948 cell growth in a cell viability assay.

SK-HEP1 = type: functional, cell-based, Homo sapiens, SK-HEP-1
Description: SANGER: Inhibition of human SK-HEP-1 cell growth in a cell viability assay.

NCI-H2291 = type: functional, cell-based, Homo sapiens
Description: SANGER: Inhibition of human NCI-H2291 cell growth in a cell viability assay.

OVCAR-5 = type: functional, cell-based, Homo sapiens
Description: SANGER: Inhibition of human OVCAR-5 cell growth in a cell viability assay.

NB14 = type: functional, cell-based, Homo sapiens
Description: SANGER: Inhibition of human NB14 cell growth in a cell viability assay.

BHY = type: functional, cell-based, Homo sapiens
Description: SANGER: Inhibition of human BHY cell growth in a cell viability assay.

Daoy = type: functional, cell-based, Homo sapiens
Description: SANGER: Inhibition of human Daoy cell growth in a cell viability assay.

SN12C = type: functional, cell-based, Homo sapiens
Description: SANGER: Inhibition of human SN12C cell growth in a cell viability assay.

D-566MG = type: functional, cell-based, Homo sapiens
G-402 = type: functional, cell-based, Homo sapiens
Description: SANGER: Inhibition of human G-402 cell growth in a cell viability assay.

MKN-7 = type: functional, cell-based, Homo sapiens
Description: SANGER: Inhibition of human MKN7 cell growth in a cell viability assay.

PANC-08-13 = type: functional, cell-based, Homo sapiens
Description: SANGER: Inhibition of human PANC-08-13 cell growth in a cell viability assay.

BFTC-909 = type: functional, cell-based, Homo sapiens
Description: SANGER: Inhibition of human BFTC-909 cell growth in a cell viability assay.

23132-87 = type: functional, cell-based, Homo sapiens
Description: SANGER: Inhibition of human 23132-87 cell growth in a cell viability assay.

EPLC-272H = type: functional, cell-based, Homo sapiens
Description: SANGER: Inhibition of human EPLC-272H cell growth in a cell viability assay.

A-427 = type: functional, cell-based, Homo sapiens
Description: SANGER: Inhibition of human A427 cell growth in a cell viability assay.

HuCCT-1 = type: functional, cell-based, Homo sapiens, HuCCT1
Description: SANGER: Inhibition of human HuCCT1 cell growth in a cell viability assay.

A673 = type: functional, cell-based, Homo sapiens
Description: SANGER: Inhibition of human A673 cell growth in a cell viability assay.

## CISPLATIN
MKN-1; mkn-1
  IC50: 42.1 µM
NCI-H2452; nci-h2452
  IC50: 213 µM
IGROV-1; igrov-1
  IC50: 0.343 µM
CAL-12T; cal-12t
  IC50: 625 µM
NB7; nb7
  IC50: 15.4 µM
G-361; g-361
  IC50: 672 µM
WM-115; wm-115
  IC50: 33.4 µM
HMV-2 cell line; hmv-2
  IC50: 11.2 µM
EFO-27; efo-27
  IC50: 13.2 µM
SF-295; sf-295
  IC50: 9.34 µM
LU-99A; lu-99a
  IC50: 4.29 µM
C32; c32
  IC50: 6.38 µM
CAL-33; cal-33
  IC50: 41.3 µM
HT55; ht55
  IC50: 118 µM
TCC-SUP; tcc-sup
  IC50: 8.5 µM
U-118-MG; u-118-mg
  IC50: 16.8 µM
NCI-H358; nci-h358
  IC50: 195 µM
RMG-I; rmg-i
  IC50: 1150 µM
SW626; sw626
  IC50: 33.1 µM
Capan-2; capan-2
  IC50: 243 µM
NCI-H810; nci-h810
  IC50: 273 µM
SW948; sw948
  IC50: 222 µM
SK-HEP1; sk-hep-1
  IC50: 28.9 µM
NCI-H2291; nci-h2291
  IC50: 458 µM
OVCAR-5; ovcar-5
  IC50: 4.02 µM
NB14; nb14
  IC50: 171 µM
BHY; bhy
  IC50: 49.3 µM
Daoy; daoy
  IC50: 1.51 µM
SN12C; sn12c
  IC50: 17.1 µM
D-566MG; d-566mg
  IC50: 3.48 µM
G-402; g-402
  IC50: 7.11 µM
MKN-7; mkn-7
  IC50: 20 µM
PANC-08-13; panc-08-13
  IC50: 22.5 µM
BFTC-909; bftc-909
  IC50: 14.9 µM
23132-87
  IC50: 60.3 µM
EPLC-272H; eplc-272h
  IC50: 13 µM
A-427; a-427
  IC50: 350 µM
HuCCT-1; hucct1
  IC50: 70.1 µM
A673; a673
  IC50: 2.17 µM

## CC(C)CCN1c2nc(Nc3cc(F)c(O)c(F)c3)ncc2N(C)C(=O)C1C (stereo unspecified)
MKN-1; Homo sapiens, MKN-1
  IC50: 3.21 µM
NCI-H2452; Homo sapiens, NCI-H2452
  IC50: > 5 µM
IGROV-1; Homo sapiens, IGROV-1
  IC50: > 5 µM
CAL-12T; Homo sapiens, CAL-12T
  IC50: 4.06 µM
NB7; Homo sapiens, NB7
  IC50: > 5 µM
G-361; Homo sapiens, G-361
  IC50: 2.12 µM
WM-115; Homo sapiens, WM-115
  IC50: > 5 µM
HMV-2 cell line; Homo sapiens, HMV-2
  IC50: 2.17 µM
EFO-27; Homo sapiens, EFO-27
  IC50: > 5 µM
SF-295; Homo sapiens, SF-295
  IC50: > 5 µM
LU-99A; Homo sapiens, LU-99A
  IC50: > 5 µM
C32; Homo sapiens, C32
  IC50: 3.97 µM
CAL-33; Homo sapiens, CAL-33
  IC50: 3.53 µM
HT55; Homo sapiens, HT55
  IC50: > 5 µM
TCC-SUP; Homo sapiens, TCC-SUP
  IC50: > 5 µM
U-118-MG; Homo sapiens, U-118-MG
  IC50: > 5 µM
NCI-H358; Homo sapiens, NCI-H358
  IC50: > 5 µM
RMG-I; Homo sapiens, RMG-I
  IC50: > 5 µM
SW626; Homo sapiens, SW626
  IC50: 4.9 µM
Capan-2; Homo sapiens, Capan-2
  IC50: > 5 µM
NCI-H810; Homo sapiens, NCI-H810
  IC50: 3.22 µM
SW948; Homo sapiens, SW948
  IC50: > 5 µM
SK-HEP1; Homo sapiens, SK-HEP1
  IC50: > 5 µM
NCI-H2291; Homo sapiens, NCI-H2291
  IC50: > 5 µM
OVCAR-5; Homo sapiens, OVCAR-5
  IC50: > 5 µM
NB14; Homo sapiens, NB14
  IC50: 2.11 µM
BHY; Homo sapiens, BHY
  IC50: > 5 µM
Daoy; Homo sapiens, Daoy
  IC50: 0.988 µM
SN12C; Homo sapiens, SN12C
  IC50: > 5 µM
D-566MG; Homo sapiens, D-566MG
  IC50: 2.91 µM
G-402; Homo sapiens, G-402
  IC50: > 5 µM
MKN-7; Homo sapiens, MKN-7
  IC50: > 5 µM
PANC-08-13; Homo sapiens, PANC-08-13
  IC50: > 5 µM
BFTC-909; Homo sapiens, BFTC-909
  IC50: > 5 µM
23132-87; Homo sapiens
  IC50: > 5 µM
EPLC-272H; Homo sapiens, EPLC-272H
  IC50: 4.18 µM
A-427; Homo sapiens, A-427
  IC50: 3.11 µM
HuCCT-1; Homo sapiens, HuCCT-1
  IC50: > 5 µM
A673; Homo sapiens, A673
  IC50: > 5 µM

## CS(=O)(=O)c1ccc(C(=O)Nc2ccc(Cl)c(-c3ccccn3)c2)c(Cl)c1 [VISMODEGIB]
MKN-1; Homo sapiens, MKN-1
  IC50: > 10 µM
NCI-H2452; Homo sapiens, NCI-H2452
  IC50: > 10 µM
IGROV-1; Homo sapiens, IGROV-1
  IC50: 0.0725 µM
CAL-12T; Homo sapiens, CAL-12T
  IC50: > 10 µM
NB7; Homo sapiens, NB7
  IC50: > 10 µM
G-361; Homo sapiens, G-361
  IC50: > 10 µM
WM-115; Homo sapiens, WM-115
  IC50: > 10 µM
HMV-2 cell line; Homo sapiens, HMV-2
  IC50: > 10 µM
EFO-27; Homo sapiens, EFO-27
  IC50: > 10 µM
SF-295; Homo sapiens, SF-295
  IC50: > 10 µM
LU-99A; Homo sapiens, LU-99A
  IC50: > 10 µM
C32; Homo sapiens, C32
  IC50: > 10 µM
CAL-33; Homo sapiens, CAL-33
  IC50: > 10 µM
HT55; Homo sapiens, HT55
  IC50: > 10 µM
TCC-SUP; Homo sapiens, TCC-SUP
  IC50: > 10 µM
U-118-MG; Homo sapiens, U-118-MG
  IC50: > 10 µM
NCI-H358; Homo sapiens, NCI-H358
  IC50: > 10 µM
RMG-I; Homo sapiens, RMG-I
  IC50: > 10 µM
SW626; Homo sapiens, SW626
  IC50: > 10 µM
Capan-2; Homo sapiens, Capan-2
  IC50: > 10 µM
NCI-H810; Homo sapiens, NCI-H810
  IC50: > 10 µM
SW948; Homo sapiens, SW948
  IC50: > 10 µM
SK-HEP1; Homo sapiens, SK-HEP1
  IC50: > 10 µM
NCI-H2291; Homo sapiens, NCI-H2291
  IC50: > 10 µM
OVCAR-5; Homo sapiens, OVCAR-5
  IC50: > 10 µM
NB14; Homo sapiens, NB14
  IC50: > 10 µM
BHY; Homo sapiens, BHY
  IC50: > 10 µM
Daoy; Homo sapiens, Daoy
  IC50: > 10 µM
SN12C; Homo sapiens, SN12C
  IC50: > 10 µM
D-566MG; Homo sapiens, D-566MG
  IC50: > 10 µM
G-402; Homo sapiens, G-402
  IC50: > 10 µM
MKN-7; Homo sapiens, MKN-7
  IC50: > 10 µM
PANC-08-13; Homo sapiens, PANC-08-13
  IC50: > 10 µM
BFTC-909; Homo sapiens, BFTC-909
  IC50: > 10 µM
23132-87; Homo sapiens
  IC50: 4.4 µM
EPLC-272H; Homo sapiens, EPLC-272H
  IC50: > 10 µM
A-427; Homo sapiens, A-427
  IC50: > 10 µM
HuCCT-1; Homo sapiens, HuCCT-1
  IC50: > 10 µM
A673; Homo sapiens, A673
  IC50: > 10 µM

## Cc1cn(-c2cc(NC(=O)c3ccc(C)c(Nc4nccc(-c5cccnc5)n4)c3)cc(C(F)(F)F)c2)cn1 [NILOTINIB]
MKN-1; Homo sapiens, MKN-1
  IC50: > 2 µM
NCI-H2452; Homo sapiens, NCI-H2452
  IC50: > 2 µM
IGROV-1; Homo sapiens, IGROV-1
  IC50: > 2 µM
CAL-12T; Homo sapiens, CAL-12T
  IC50: > 2 µM
NB7; Homo sapiens, NB7
  IC50: 0.134 µM
G-361; Homo sapiens, G-361
  IC50: > 2 µM
WM-115; Homo sapiens, WM-115
  IC50: > 2 µM
HMV-2 cell line; Homo sapiens, HMV-2
  IC50: 0.749 µM
EFO-27; Homo sapiens, EFO-27
  IC50: > 2 µM
SF-295; Homo sapiens, SF-295
  IC50: > 2 µM
LU-99A; Homo sapiens, LU-99A
  IC50: > 2 µM
C32; Homo sapiens, C32
  IC50: > 2 µM
CAL-33; Homo sapiens, CAL-33
  IC50: > 2 µM
HT55; Homo sapiens, HT55
  IC50: > 2 µM
TCC-SUP; Homo sapiens, TCC-SUP
  IC50: > 2 µM
U-118-MG; Homo sapiens, U-118-MG
  IC50: > 2 µM
NCI-H358; Homo sapiens, NCI-H358
  IC50: > 2 µM
RMG-I; Homo sapiens, RMG-I
  IC50: > 2 µM
SW626; Homo sapiens, SW626
  IC50: > 2 µM
Capan-2; Homo sapiens, Capan-2
  IC50: > 2 µM
NCI-H810; Homo sapiens, NCI-H810
  IC50: > 2 µM
SW948; Homo sapiens, SW948
  IC50: > 2 µM
SK-HEP1; Homo sapiens, SK-HEP1
  IC50: > 2 µM
NCI-H2291; Homo sapiens, NCI-H2291
  IC50: > 2 µM
OVCAR-5; Homo sapiens, OVCAR-5
  IC50: > 2 µM
NB14; Homo sapiens, NB14
  IC50: > 2 µM
BHY; Homo sapiens, BHY
  IC50: > 2 µM
Daoy; Homo sapiens, Daoy
  IC50: > 2 µM
SN12C; Homo sapiens, SN12C
  IC50: > 2 µM
D-566MG; Homo sapiens, D-566MG
  IC50: > 2 µM
G-402; Homo sapiens, G-402
  IC50: > 2 µM
MKN-7; Homo sapiens, MKN-7
  IC50: > 2 µM
PANC-08-13; Homo sapiens, PANC-08-13
  IC50: > 2 µM
BFTC-909; Homo sapiens, BFTC-909
  IC50: > 2 µM
23132-87; Homo sapiens
  IC50: > 2 µM
EPLC-272H; Homo sapiens, EPLC-272H
  IC50: > 2 µM
A-427; Homo sapiens, A-427
  IC50: > 2 µM
HuCCT-1; Homo sapiens, HuCCT-1
  IC50: > 2 µM
A673; Homo sapiens, A673
  IC50: > 2 µM
